Common to all, as to format: in vivo
A short description of assay [1]: Promoting excretion of 241Am(III) in mice by injected ligand. The source says:
(§1) Animal studies were completed using methods detailed in Radiation Protection Dosimetry, in press, P. W. Durbin et al., "In Vivo Chelation of Am(III), Pu(IV), Np(V) and U(VI) in Mice by TREN-(Me-3,2-HOPO)"; Radiation Protection Dosimetry, 17, No. 1, 1989, p. 351, P. W. Durbin et al., "Removal of ^238Pu(IV) from Mice by Polycatechoylate, -Hydroxamate or -Hydroxypyridinonate Ligands"; Radiation Research, 99, 1984, p. 85, P. W. Durbin et al., "Specific Sequestering Agents for the Actinides ..."; Radiation Research, 99, 1984, p. 106, P. W. Durbin et al., "Removal of Pu and Am from Beagles and Mice ..."; Radiation Research, 81, 1980, p. 170, R. D. Lloyd et al., and P. W. Durbin et al., "Specific Sequestering Agents for the Actinides ...". The foregoing articles are hereby incorporated by reference.
(§2) Radionuclides used in the animal studies came from a variety of sources. However, they can be purchased commercially. The ^238Pu(IV) citrate and ^241Am(III) citrate solutions were prepared for animal injection by 8- to 10-fold dilution with 0.14M NaCl (pH 4) of concentrated stock solutions (0.08M sodium citrate buffer) that had been held in frozen storage at Lawrence Berkeley Laboratory (hereinafter LBL) for several years. [The ^238Pu(IV) was originally obtained from D. R. Atherton at the University of Utah Radiobiology Laboratory, Salt Lake City. The ^241Am(III) solution had been obtained many years earlier from the LBL Actinide Chemistry group.]
(§3) One of the comparative chelating agents TREN-Me-3,2-HOPO, was also tested for effectiveness in promoting excretion of ^241Am(III), ^237Np(V), and ^232U(VI) by injection into mice, as follows: Mice, in groups of five, each received an intravenous injection of (a) 1100 Bq of ^241AM(III) in 0.2 mL of citrate buffer, (b) 150 Bq of ^232UO2Cl2 plus 3.6 mg of ^235UO2Cl2 in 0.2 mL of saline, or (c) 200 Bq of ^237NpO2Cl (7.5 mg of ^237NpO2Cl) in 0.2 mL of saline. Three to five minutes later, […] of TREN-Me-3,2-HOPO was injected intraperitoneally in 0.5 mL of saline. The mice were killed 24 hours after the actinide injection, frozen, and dissected after partial thawing. The skeleton, soft tissues, and separated excreta were radioanalyzed by counting the ^241Am gamma rays, or the alpha particles emitted by ^237Np or ^232U (and its ingrowing daughters). Removal of those actinides from mice by injected TREN-Me-3,2-HOPO is summarized in Table 5, which also includes data for mice similarly treated with CaNa3-DTPA and for actinide-injected controls. […] The structure of Am(III)-TREN-Me-3,2-HOPO is considered to resemble that of the Gd(III) complexes (see example 20). Complexation of the fraction of Np(V) that is reduced in vivo to Np(IV) is considered to resemble that of Pu(IV). Complexation of U(VI) is considered to take place through binding to UO2^2+.

Assay [2] is described as follows: Promoting excretion of 238Pu(IV) in mice by injected ligands. Conditions: ligand 30 µmol kg^-1 ip at 1 h after iv ^238Pu(IV) citrate, kill at 24 h.
Text: as §1, §2
The novel chelating agents of the present invention and comparative compounds were tested for their effectiveness in promoting excretion ^238Pu(IV) in nice by injected ligands as follows. Mice, in groups of five, each received an intravenous injection of 1850 Bq ^238Pu(IV) in 0.2 mL of citrate buffer. One hour later, 30 µmol/kg of ligand was injected intraperitoneally in 0.5 mL of saline. The mice were killed 24 hours after the Pu injection, frozen, and dissected after partial thawing. The ^238Pu in skeleton, soft tissues, and separated excreta was determined by counting the ^234U L x-rays. Results of removal of ^238Pu(IV) from mice by injected ligands are summarized in Table 3, which also includes data for CaNa3-DTPA and other reference ligands and the Pu-injected controls. […] While the case of multidente 1,2-HOPO and catechoylamide chelating agents, octadentates are always better chelating agents than the corresponding hexadentates and tetradentates.

Assay [3] is described as follows: Promoting excretion of 237Np(V) in mice by injected ligand.
Text: as §1
The ^237Np(V) was obtained from J. Bucher of the LBL Actinide Chemistry group as NpO2Cl in 0.1 M HCl. It was diluted to the desired radioactivity concentration in 0.14M NaCl and the pH was adjusted to about 4.5 with NaOH just before use.
as §3

Setting [4] is: Am(III), ligand 30 mmol.kg-1 i.p at 3 to 5 min after actinide i.v., kill at 24 h.
Where [5] appears, read: Am(III), ligand 30 mmol.kg-1 i.p at 3 to 5 min after actinide i.v., kill at 24 h, pooled.
[6] abbreviates: Np(V), ligand 30 mmol.kg-1 i.p at 3 to 5 min after actinide i.v., kill at 24 h.
[7] abbreviates: Np(V), ligand 30 mmol.kg-1 i.p at 3 to 5 min after actinide i.v., kill at 24 h, pooled.

This note sets out measurements from EP0840727B1, “3-HYDROXY-2(1H)-[…] AGENTS” (priority 1995, dated 1997).

Structures are written as SMILES. Marks after values point to notes of the source that are not given here.

Turning to `Cn1ccc(C(=O)NCCN(CCNC(=O)c2ccn(C)c(=O)c2O)CCNC(=O)c2ccn(C)c(=O)c2O)c(O)c1=O` [TREN-Me-3,2-HOPO, N,N,N,-Tris[(3-hydroxy-1-methyl-2-oxo-1,2-dihydropyridin-4-yl)carboxamidoethyl]-amine], the “Am content of tissues compared with controls (in words)” value in assay [1] (30 µmol/kg intraperitoneally three to five minutes after actinide) is reported as “the Am content of all tissues was greatly reduced”. In addition, in assay [1] (setting [4]), the “percent of injected actinide ± SD at 24 h, tissues: liver” value is recorded as 1.0 ± 0.6^d,e percent of injected actinide; the “percent of injected actinide ± SD at 24 h, tissues: skeleton” value is recorded as 8.1 ± 1.6^d percent of injected actinide; the “percent of injected actinide ± SD at 24 h, tissues: soft tissue” value is on record as 1.6 ± 0.6^d percent of injected actinide; the “percent of injected actinide ± SD at 24 h, whole body” value was 11 ± 1.4^d,e percent of injected actinide. Also, in assay [1] (setting [5]), the “percent of injected actinide at 24 h, excreta: feces and GI contents” value was 38% of injected actinide; the “percent of injected actinide at 24 h, excreta: urine 0-24 h” value is given as 51% of injected actinide; the “percent of injected actinide at 24 h, tissues: kidneys” value was 0.2% of injected actinide. Besides, in assay [2], the “percent of injected ^238Pu ± SD at 24 h, tissues: liver” value was 5.0 ± 2.2^d percent of injected ^238Pu; the “percent of injected ^238Pu ± SD at 24 h, tissues: skeleton” value was 10 ± 1.1% of injected ^238Pu; the “percent of injected ^238Pu ± SD at 24 h, tissues: soft tissue” value is recorded as 2.5 ± 0.8% of injected ^238Pu; the “percent of injected ^238Pu ± SD at 24 h, whole body” value is reported as 18 ± 2.7^d percent of injected ^238Pu. Besides, in assay [2] (pooled samples), the “percent of injected ^238Pu at 24 h, excreta: feces and GI contents” value is reported as 43.3% of injected ^238Pu; the “percent of injected ^238Pu at 24 h, excreta: urine 0-24 h” value is 37% of injected ^238Pu; the “percent of injected ^238Pu at 24 h, tissues: kidneys” value is on record as 0.6% of injected ^238Pu. In assay [3] (setting [6]), the “percent of injected actinide ± SD at 24 h, tissues: skeleton” value is recorded as 34 ± 4.5% of injected actinide; the “percent of injected actinide ± SD at 24 h, tissues: soft tissue” value is 3.1 ± 1.1% of injected actinide; the “percent of injected actinide ± SD at 24 h, whole body” value was 42 ± 11^d,e percent of injected actinide. Also, in assay [3] (setting [7]), the “percent of injected actinide at 24 h, excreta: feces and GI contents” value is 17% of injected actinide; the “percent of injected actinide at 24 h, excreta: urine 0-24 h” value is listed as 40% of injected actinide; the “percent of injected actinide at 24 h, tissues: kidneys” value was 1.0% of injected actinide. Also, the “Np content of the soft tissues compared with controls (in words)” value in assay [3] (intraperitoneally three to five minutes after actinide) is recorded as “the Np content of the soft tissues was significantly reduced”.
